From PubChem BioAssay AID1918940 (Molecular Pharmacology Branch, DTP, NCI, 2023)

Tested on: NCI-H211 complex spheroid viability
Assay: Anticancer human tumor NCI-H211 cell line growth inhibition [LSD1];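 further: luminescent viability read after seven days of drug exposure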;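 on viability, T/C: 100% = DMSO vehicle control viability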
Conditions: for IC50: curve of first compound; for viability, T/C: stronger effect = lower value
Summary of the method: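 Multicellular complex spheroids of tumor cells with human endothelial cells (HUVEC) and mesenchymal stem cells; the LSD1 inhibitor iadademstat was combined with standard-of-care or investigational agents. Top concentration at or near clinical Cmax, half-log dilutions; final DMSO ≤0.25%.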

[1] = second compound 0.1 µM, first compound 0.0316 µM
[2] = second compound 0.1 µM, first compound 0.1 µM
[3] = second compound 0.1 µM, first compound 0.316 µM
[4] = second compound 0.1 µM, first compound 1 µM
[5] = second compound 0.316 µM, first compound 0.0316 µM
[6] = second compound 0.316 µM, first compound 0.1 µM
[7] = second compound 0.316 µM, first compound 0.316 µM
[8] = second compound 0.316 µM, first compound 1 µM
[9] = second compound 1 µM, first compound 0.0316 µM
[10] = second compound 1 µM, first compound 0.1 µM
[11] = second compound 1 µM, first compound 0.316 µM
[12] = second compound 1 µM, first compound 1 µM
[13] = second compound 3.16 µM, first compound 0.0316 µM
[14] = second compound 3.16 µM, first compound 0.1 µM
[15] = second compound 3.16 µM, first compound 0.316 µM
[16] = second compound 3.16 µM, first compound 1 µM
[17] = second compound 10 µM, first compound 0.0316 µM
[18] = second compound 10 µM, first compound 0.1 µM
[19] = second compound 10 µM, first compound 0.316 µM
[20] = second compound 10 µM, first compound 1 µM
[21] = second compound 0.1 µM, first compound 3.16 µM
[22] = second compound 0.1 µM, first compound 10 µM
[23] = second compound 0.316 µM, first compound 3.16 µM
[24] = second compound 0.316 µM, first compound 10 µM
[25] = second compound 1 µM, first compound 3.16 µM
[26] = second compound 1 µM, first compound 10 µM
[27] = second compound 3.16 µM, first compound 3.16 µM
[28] = second compound 3.16 µM, first compound 10 µM
[29] = second compound 10 µM, first compound 3.16 µM
[30] = second compound 10 µM, first compound 10 µM

Structure (SMILES): COc1cc(Nc2ncc3c(n2)-c2ccc(Cl)cc2C(c2c(F)cccc2OC)=NC3)ccc1C(=O)O + NC1CC1c1ccc(-c2cccc(O)c2)cc1
- IC50 (second compound 0.1 µM): < 3.16 nM
- IC50 (second compound 0.316 µM): < 3.16 nM
- IC50 (second compound 1 µM): < 3.16 nM
- IC50 (second compound 3.16 µM): < 3.16 nM
- IC50 (second compound 10 µM): < 3.16 nM
- viability, T/C (second compound 0.1 µM, first compound 0.00316 µM): 28.2%
- viability, T/C (second compound 0.1 µM, first compound 0.01 µM): 5.72%
- viability, T/C [1]: 4.04%
- viability, T/C [2]: 3.29%
- viability, T/C [3]: 4.66%
- viability, T/C [4]: 3.94%
- viability, T/C (second compound 0.316 µM, first compound 0.00316 µM): 37.7%
- viability, T/C (second compound 0.316 µM, first compound 0.01 µM): 6.96%
- viability, T/C [5]: 3.41%
- viability, T/C [6]: 4.23%
- viability, T/C [7]: 4.53%
- viability, T/C [8]: 3.46%
- viability, T/C (second compound 1 µM, first compound 0.00316 µM): 33.4%
- viability, T/C (second compound 1 µM, first compound 0.01 µM): 6.82%
- viability, T/C [9]: 3.89%
- viability, T/C [10]: 4.49%
- viability, T/C [11]: 3.81%
- viability, T/C [12]: 3.95%
- viability, T/C (second compound 3.16 µM, first compound 0.00316 µM): 21.8%
- viability, T/C (second compound 3.16 µM, first compound 0.01 µM): 7.56%
- viability, T/C [13]: 4.05%
- viability, T/C [14]: 3.76%
- viability, T/C [15]: 3.87%
- viability, T/C [16]: 3.54%
- viability, T/C (second compound 10 µM, first compound 0.00316 µM): 21.8%
- viability, T/C (second compound 10 µM, first compound 0.01 µM): 6.88%
- viability, T/C [17]: 4.59%
- viability, T/C [18]: 4.93%
- viability, T/C [19]: 5.57%
- viability, T/C [20]: 4.21%

Structure (SMILES): O=C(c1cc(Cc2n[nH]c(=O)c3ccccc23)ccc1F)N1CCN(C(=O)C2CC2)CC1 + NC1CC1c1ccc(-c2cccc(O)c2)cc1
- IC50 (second compound 0.1 µM): < 31.6 nM
- IC50 (second compound 0.316 µM): < 31.6 nM
- IC50 (second compound 1 µM): < 31.6 nM
- IC50 (second compound 3.16 µM): < 31.6 nM
- IC50 (second compound 10 µM): < 31.6 nM
- viability, T/C [1]: 47.4%
- viability, T/C [2]: 25%
- viability, T/C [3]: 7.94%
- viability, T/C [4]: 5.7%
- viability, T/C [21]: 6.16%
- viability, T/C [22]: 5.03%
- viability, T/C [5]: 48.9%
- viability, T/C [6]: 24.5%
- viability, T/C [7]: 8.13%
- viability, T/C [8]: 5.19%
- viability, T/C [23]: 4.85%
- viability, T/C [24]: 5.84%
- viability, T/C [9]: 44%
- viability, T/C [10]: 22%
- viability, T/C [11]: 7.69%
- viability, T/C [12]: 5.3%
- viability, T/C [25]: 6.41%
- viability, T/C [26]: 5.15%
- viability, T/C [13]: 49.2%
- viability, T/C [14]: 19.5%
- viability, T/C [15]: 8.34%
- viability, T/C [16]: 5.75%
- viability, T/C [27]: 6.96%
- viability, T/C [28]: 5.88%
- viability, T/C [17]: 34.4%
- viability, T/C [18]: 17.2%
- viability, T/C [19]: 8.43%
- viability, T/C [20]: 5.92%
- viability, T/C [29]: 6.26%
- viability, T/C [30]: 6.28%

Structure (SMILES): O=C(C=Cc1cccc(S(=O)(=O)Nc2ccccc2)c1)NO + NC1CC1c1ccc(-c2cccc(O)c2)cc1
- IC50 (second compound 0.1 µM): < 9.49 nM
- IC50 (second compound 0.316 µM): < 9.49 nM
- IC50 (second compound 1 µM): < 9.49 nM
- IC50 (second compound 3.16 µM): < 9.49 nM
- IC50 (second compound 10 µM): < 9.49 nM
- viability, T/C (second compound 0.1 µM, first compound 0.00949 µM): 14.7%
- viability, T/C (second compound 0.1 µM, first compound 0.03 µM): 8.14%
- viability, T/C (second compound 0.1 µM, first compound 0.0949 µM): 7.87%
- viability, T/C (second compound 0.1 µM, first compound 0.3 µM): 3.8%
- viability, T/C (second compound 0.1 µM, first compound 0.949 µM): 0.63%
- viability, T/C (second compound 0.1 µM, first compound 3 µM): 0.14%
- viability, T/C (second compound 0.316 µM, first compound 0.00949 µM): 13.9%
- viability, T/C (second compound 0.316 µM, first compound 0.03 µM): 7.23%
- viability, T/C (second compound 0.316 µM, first compound 0.0949 µM): 7.38%
- viability, T/C (second compound 0.316 µM, first compound 0.3 µM): 4.67%
- viability, T/C (second compound 0.316 µM, first compound 0.949 µM): 0.66%
- viability, T/C (second compound 0.316 µM, first compound 3 µM): 0.16%
- viability, T/C (second compound 1 µM, first compound 0.00949 µM): 13.9%
- viability, T/C (second compound 1 µM, first compound 0.03 µM): 8.11%
- viability, T/C (second compound 1 µM, first compound 0.0949 µM): 9.23%
- viability, T/C (second compound 1 µM, first compound 0.3 µM): 4.38%
- viability, T/C (second compound 1 µM, first compound 0.949 µM): 0.39%
- viability, T/C (second compound 1 µM, first compound 3 µM): 0.17%
- viability, T/C (second compound 3.16 µM, first compound 0.00949 µM): 15.4%
- viability, T/C (second compound 3.16 µM, first compound 0.03 µM): 7.28%
- viability, T/C (second compound 3.16 µM, first compound 0.0949 µM): 7.21%
- viability, T/C (second compound 3.16 µM, first compound 0.3 µM): 4.21%
- viability, T/C (second compound 3.16 µM, first compound 0.949 µM): 0.29%
- viability, T/C (second compound 3.16 µM, first compound 3 µM): 0.16%
- viability, T/C (second compound 10 µM, first compound 0.00949 µM): 13.5%
- viability, T/C (second compound 10 µM, first compound 0.03 µM): 6.43%
- viability, T/C (second compound 10 µM, first compound 0.0949 µM): 7.11%
- viability, T/C (second compound 10 µM, first compound 0.3 µM): 3.82%
- viability, T/C (second compound 10 µM, first compound 0.949 µM): 0.24%
- viability, T/C (second compound 10 µM, first compound 3 µM): 0.27%

Structure (SMILES): CC1(C)CCC(CN2CCN(c3ccc(C(=O)NS(=O)(=O)c4ccc(NCC5CCOCC5)c([N+](=O)[O-])c4)c(Oc4cnc5[nH]ccc5c4)c3)CC2)=C(c2ccc(Cl)cc2)C1 + NC1CCC(NC2CC2c2ccccc2)CC1
- IC50 (second compound 0.1 µM): 5790 nM
- IC50 (second compound 0.316 µM): 5770 nM
- IC50 (second compound 1 µM): > 10000 nM
- IC50 (second compound 3.16 µM): < 31.6 nM
- IC50 (second compound 10 µM): < 31.6 nM
- viability, T/C [1]: 55.3%
- viability, T/C [2]: 61.6%
- viability, T/C [3]: 73.5%
- viability, T/C [4]: 102%
- viability, T/C [21]: 86.2%
- viability, T/C [22]: 26.8%
- viability, T/C [5]: 64.8%
- viability, T/C [6]: 60.5%
- viability, T/C [7]: 71.2%
- viability, T/C [8]: 84.1%
- viability, T/C [23]: 101%
- viability, T/C [24]: 26%
- viability, T/C [9]: 48.6%
- viability, T/C [10]: 59%
- viability, T/C [11]: 57.6%
- viability, T/C [12]: 81.3%
- viability, T/C [25]: 93.5%
- viability, T/C [26]: 24.7%
- viability, T/C [13]: 41.9%
- viability, T/C [14]: 44.4%
- viability, T/C [15]: 57.9%
- viability, T/C [16]: 75.1%
- viability, T/C [27]: 88.4%
- viability, T/C [28]: 21.1%
- viability, T/C [17]: 25.1%
- viability, T/C [18]: 24.9%
- viability, T/C [19]: 30%
- viability, T/C [20]: 33.8%
- viability, T/C [29]: 52.6%
- viability, T/C [30]: 19.8%
